Assays:
[1] = target: T1, phosphatidylinositol glycan anchor biosynthesis class W (PIGW) protein (Homo sapiens, UniProt Q7Z7B1); test: Inhibition of PIGW, closest mammalian ortholog of GWT1; type: biochemical; settings: closest mammalian ortholog of fungal GWT1
T1 sequence (Q7Z7B1 1-504): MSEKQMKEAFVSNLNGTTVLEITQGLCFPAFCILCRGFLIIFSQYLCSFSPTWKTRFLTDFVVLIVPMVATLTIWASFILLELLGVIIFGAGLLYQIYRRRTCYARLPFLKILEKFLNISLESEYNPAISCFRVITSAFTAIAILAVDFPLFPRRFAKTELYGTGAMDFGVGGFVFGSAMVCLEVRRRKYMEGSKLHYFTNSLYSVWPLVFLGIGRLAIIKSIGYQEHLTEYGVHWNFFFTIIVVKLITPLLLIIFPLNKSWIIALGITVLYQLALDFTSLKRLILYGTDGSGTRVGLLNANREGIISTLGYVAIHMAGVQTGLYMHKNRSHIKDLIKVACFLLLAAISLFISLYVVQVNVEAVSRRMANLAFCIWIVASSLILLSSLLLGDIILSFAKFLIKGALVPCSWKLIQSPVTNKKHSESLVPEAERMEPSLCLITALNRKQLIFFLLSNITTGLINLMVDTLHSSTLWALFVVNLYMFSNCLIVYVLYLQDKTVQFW
Excerpt: (§1) Compound 1A inhibits the fungal glycosylphosphatidylinositol (GPI)-anchored wall transfer protein 1 (GWT1) enzyme, a highly conserved inositol acylase that catalyzes an early step in the GPI-anchored biosynthesis pathway. This inhibition has pleiotropic effects on the fungal cell due to inhibition of cell wall mannoprotein localization, which comprises cell wall integrity, biofilm formation, germ tube formation, and fungal growth.

[2] = test system: Candida spp., Cryptococcus spp., Aspergillus spp., Scedosporium spp., Fusarium spp., and some Mucorales fungi; test: In vitro antifungal activity; type: cell-based; settings: including azole- and echinocandin-resistant strains
[3] = target: fungal glycosylphosphatidylinositol (GPI)-anchored wall transfer protein 1 (GWT1) enzyme (Saccharomyces cerevisiae, UniProt P47026); test: Inhibition of fungal GWT1 enzyme; type: biochemical
Excerpt: as §1

[4] = test system: Aspergillus fumigatus, Scedosporium prolificans, and Fusarium solani; test: 5-fluorouracil immunosuppressed mice with IMIs; type: in vivo
[5] = test system: clinical isolates of rare mold infections and rare yeast infections; test: Antifungal activity against clinical isolates of rare mold and rare yeast infections; type: cell-based; settings: broad range of clinical isolates of rare mold and rare yeast infections
Excerpt: These rare mold and rare yeast species generally pose no threat to healthy subjects, but can lead to invasive mold infections in immunocompromised individuals.

[6] = Phase 1 studies in healthy volunteers, safety and tolerability; type: in vivo, human
Excerpt: In Phase 1 clinical studies of compound 1, the safety, tolerability, and PK of single and multiple ascending doses administered intravenously (IV) and orally (PO) have been studied. To date, a total of 197 healthy volunteers and 21 patients with acute myeloid leukemia (AML) have received compound 1 across 5 Phase 1 studies. The duration of the multiple-dose regimens in these studies was 7, 14, and 42 days (6 weeks).
The majority of the TEAEs were mild, transitory, and resolved without intervention. […] This IV dose regimen is identical to the IV dose regimen that will be used in this study. […] This PO-dose regimen is higher than the 700 mg PO dose that will be used in this study.

Tissue distribution = type: in vivo; settings: IV and PO formulations
Excerpt: Compound 1 has a novel mechanism of action with broad spectrum activity against Candida spp. (yeast) and Aspergillus spp. (mold), including activity against polyene and azole-resistant strains of Aspergillus spp. […] Compound 1 has the potential to be used as a first-line agent for the treatment of IMIs through a unique mechanism of action. Thus, compound 1 has potential to fill an unmet need for patients with limited or no antifungal treatment options due to documented/anticipated resistance, contraindication, intolerance, or lack of clinical response to standard of care (SOC) antifungal therapy.

[7] = in vivo
Candida spp. [8] = test: In vitro activity against Candida spp. isolates from the study; type: cell-based; settings: including isolates resistant to other antifungal agents
Description: A total of 21 patients were enrolled in the study: 20 were included in the mITT. Median duration of Compound 1 therapy was 11 days (range 5 to 14). All patients received IV Compound 1, 48% (10/21) received PO Compound 1.

Candida spp. [9] = test: Open-label study in non-neutropenic patients with candidemia; type: in vivo, human
Description: Suspicion of antifungal-resistant candidemia is sufficient and subsequent documented resistance is not required for enrollment. The Study Drug Treatment Period will be up to a maximum of 14 days (inclusive of the loading dose [Study Day 1]). […] There will be a Follow-up Period of 4 weeks (+4 days) after EOT. The total duration of participation in the study is up to approximately 7.5 weeks (inclusive of the Screening Period [≤96 hours prior to Baseline]).
Patients with a yeast identified in a blood culture or a positive rapid diagnostic method are eligible to be consented and screened for the study. Patients must have at least 1 positive blood test for Candida spp. (or yeast suspected to be Candida) for a diagnosis of candidemia to be considered for enrollment into the study. Patients with a positive blood culture showing yeast suspected to be Candida must have identification of Candida spp. from positive blood culture confirmed prior to dosing. Screening and Baseline procedures and the start of Compound 1 study drug will be initiated within 96 hours from the time that the SOC blood sample for the Candida spp. positive culture or rapid diagnostic test was drawn. Patients with 2 days (>48 hours) equivalent of prior systemic antifungal treatment at approved doses to treat the current episode of candidemia within 96 hours before first dose will be excluded.
On Study Day 1 (or over the first 24 hours if started in the evening), a 1000 mg Compound 1 loading dose will be administered over 3 hours by IV infusion BID. On Study Days 2 and 3 of study drug, a 600 mg Compound 1 maintenance dose will be administered over 3 hours by IV infusion QD. On Study Day 4 and onward, the Compound 1 maintenance dose will be administered as either 600 mg Compound 1 IV infusion QD over 3 hours or 700 mg PO QD. […] Study drug will be administered for a maximum of 14 days. […] Candida spp. bloodstream infection will be monitored by daily blood culture during Study Drug Treatment until 2 consecutive blood cultures are negative, and at EOST, EOT, and 2 and 4 weeks after EOT, or Early Termination. Simultaneously drawn blood samples will be collected for Candida testing by T2 magnetic resonance (T2MR) assay at Baseline, during Study Drug Treatment, and EOST, or Early Termination. Other cultures, histopathology, and imaging tests to assess the site(s) and extent of candidemia infection at other sites will be conducted as clinically indicated, and the results should be recorded in the electronic Case Report Form (eCRF). The management of intravascular catheters, intravascular devices, and, if applicable, any drains will be recorded, including any associated microbiology results. Patients will be monitored for safety throughout the duration of the study.
On Study Day 1 (or over the first 24 hours if started in the evening), a 1000 mg Compound 1 loading dose will be administered over 3 hours by IV infusion BID. On Study Days 2 and 3 of study drug, a 600 mg Compound 1 maintenance dose will be administered over 3 hours by IV infusion QD. On Study Day 4 and onward, the Compound 1 maintenance dose will be administered as either 600 mg Compound 1 IV infusion QD over 3 hours or 700 mg PO QD. […] Study drug will be administered for a maximum of 14 days (inclusive of the loading dose [Study Day 1]). Tablets are to be administered at the same time each day, whole, and taken by mouth with water within 30 minutes of being removed from the refrigerator. No splitting or crushing of tablets is allowed.
If applicable, an assessment of efficacy will also be made at the end of this antifungal treatment at EOT.
Eradication is defined as a negative blood culture(s) for Candida spp. in the absence of additional antifungal therapy (except for protocol-allowed step-down treatment [e.g., fluconazole]) through EOT

[10] = test system: A. fumigatus, S. apiospermum, F. solani, and Rhizopus spp.; test: Cyclophosphamide and cortisone acetate immunosuppressed mice with IMIs; type: in vivo
[11] = patients with renal insufficiency
[12] = patients with renal insufficiency (n=14)

Sequence of fungal glycosylphosphatidylinositol (GPI)-anchored wall transfer protein 1 (GWT1) enzyme (P47026 whole entry): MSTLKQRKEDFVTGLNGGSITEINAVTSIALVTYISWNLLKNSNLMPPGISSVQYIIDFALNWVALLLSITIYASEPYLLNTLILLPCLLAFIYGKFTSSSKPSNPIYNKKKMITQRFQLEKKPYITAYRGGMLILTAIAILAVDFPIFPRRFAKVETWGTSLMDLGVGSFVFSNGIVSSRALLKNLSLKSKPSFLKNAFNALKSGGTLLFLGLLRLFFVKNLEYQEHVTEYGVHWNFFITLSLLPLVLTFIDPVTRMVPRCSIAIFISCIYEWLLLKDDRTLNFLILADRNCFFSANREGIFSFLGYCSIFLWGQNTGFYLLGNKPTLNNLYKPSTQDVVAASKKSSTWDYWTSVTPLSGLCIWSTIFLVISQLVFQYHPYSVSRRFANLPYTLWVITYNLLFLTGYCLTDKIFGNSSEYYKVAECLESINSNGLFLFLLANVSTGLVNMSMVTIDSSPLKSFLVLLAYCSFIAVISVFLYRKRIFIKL

For `Nc1ncccc1-c1cc(Cc2ccc(COc3ccccn3)cc2)no1` [Compound 1A], the “inhibition of PIGW protein” value [1] was “does not inhibit”, the “in vitro antifungal activity” value [2] was “broad in vitro antifungal activity” and the “inhibition of fungal GWT1 enzyme” value [3] was “inhibits”. The “pulmonary fungal colony counts” value [4] was “reduced pulmonary fungal colony counts”, the survival rates [4] was “statistically significantly improved survival rates” and the “antifungal activity against clinical isolates” value [5] was “demonstrated antifungal activity”.

In the case of `Nc1c(-c2cc(Cc3ccc(COc4ccccn4)cc3)no2)ccc[n+]1COP(=O)([O-])O` [Compound 1], the DLTs ([6]; 2 Phase 1 studies, healthy volunteers) is reported as “No DLTs were observed”, the safety and tolerability ([6]; 2 Phase 1 studies, healthy volunteers, IV and PO formulations) is reported as “safe and well tolerated” and the safety and tolerability ([6]; FIH Phase 1: 1000 mg IV 2-hour infusion BID Day 1, then 600 mg IV 1-hour infusion QD Days 2 through 7) is reported as “safe and well tolerated”. The safety and tolerability ([6]; second Phase 1 study: 1000 mg PO QD Days 1 through 14) was “safe and well tolerated”, the tissue distribution (Tissue distribution) was “wide-tissue distribution, including the eye and central nervous system” and the “pulmonary fungal colony counts” value [4] was “reduced pulmonary fungal colony counts”. The survival rates [4] was “statistically significantly improved survival rates”, the “conversion of prodrug to compound 1A” value [7] was “rapidly converted in vivo” and the “in vitro activity against Candida spp. from the study” value (Candida spp. [8]) was “potent in vitro activity”. The “DRC-assessed success rate at EOST” value (Candida spp. [9]; mITT (16/20)) was 80%, the “Survival at day 30” value (Candida spp. [9]; mITT (17/20)) was 85% and the tolerability (Candida spp. [9]; patients with candidemia, up to 14 days) was “well-tolerated with no treatment-related serious adverse events or discontinuations”. The “effect of renal impairment on exposure” value (Candida spp. [9]; [11]) was “did not increase exposure”, the treatment-related adverse events (Candida spp. [9]; [11]) was “no treatment-related adverse events” and the “Treatment success rate at EOST” value (Candida spp. [9]; patients with renal insufficiency (12/14)) was 86%. The “worsening of renal function at EOST” value (Candida spp. [9]; [12]) was “None”, the “worsening of renal function during the follow-up period” value (Candida spp. [9]; [12]) was 4 patients and the fungal burden [10] was “reduced fungal burden”. The survival rates [10] was “statistically significantly improved survival rates”.

— patent publication US20230233586A1, “COMPOUNDS AND METHODS FOR TREATING FUNGAL INFECTIONS” (Amplyx Pharmaceuticals, Inc., priority 2020, published 2023)
